In ChEMBL document CHEMBL2069273, “Modulation of cofilin phosphorylation by inhibition of the Lim family kinases” (Bioorg Med Chem Lett, 2012):
Calls of active or inactive are those of the source. The calls are words filed in the database; no cut-off is given here.

Assays:
LIM domain kinase 1 [1] = target: T1, LIM domain kinase 1 (Homo sapiens, UniProt P53667); assay: Inhibition of LIMK1
Target sequence in this assay (P53667 whole entry, the tested form may be a part): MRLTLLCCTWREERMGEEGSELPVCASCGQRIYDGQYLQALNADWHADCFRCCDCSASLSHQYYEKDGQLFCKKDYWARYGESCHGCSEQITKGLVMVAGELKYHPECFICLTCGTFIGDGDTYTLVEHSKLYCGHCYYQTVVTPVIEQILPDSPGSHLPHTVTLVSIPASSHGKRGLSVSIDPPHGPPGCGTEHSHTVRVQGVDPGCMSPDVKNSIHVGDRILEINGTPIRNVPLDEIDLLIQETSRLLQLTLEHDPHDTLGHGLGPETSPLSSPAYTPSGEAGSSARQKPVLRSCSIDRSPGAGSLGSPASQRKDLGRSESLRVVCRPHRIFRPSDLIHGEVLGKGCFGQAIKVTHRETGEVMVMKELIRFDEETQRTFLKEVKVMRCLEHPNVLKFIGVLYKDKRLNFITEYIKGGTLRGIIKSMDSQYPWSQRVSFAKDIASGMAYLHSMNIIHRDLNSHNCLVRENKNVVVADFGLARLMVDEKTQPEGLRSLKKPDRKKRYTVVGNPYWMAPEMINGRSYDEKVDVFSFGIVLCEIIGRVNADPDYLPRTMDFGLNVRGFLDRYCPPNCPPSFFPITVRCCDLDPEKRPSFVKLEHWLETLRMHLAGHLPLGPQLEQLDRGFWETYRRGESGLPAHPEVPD

[2] = target: Dual specificity testis-specific protein kinase 1 (Homo sapiens, UniProt Q15569); assay: Inhibition of TESK1
Chain of Dual specificity testis-specific protein kinase 1 (Q15569 whole entry): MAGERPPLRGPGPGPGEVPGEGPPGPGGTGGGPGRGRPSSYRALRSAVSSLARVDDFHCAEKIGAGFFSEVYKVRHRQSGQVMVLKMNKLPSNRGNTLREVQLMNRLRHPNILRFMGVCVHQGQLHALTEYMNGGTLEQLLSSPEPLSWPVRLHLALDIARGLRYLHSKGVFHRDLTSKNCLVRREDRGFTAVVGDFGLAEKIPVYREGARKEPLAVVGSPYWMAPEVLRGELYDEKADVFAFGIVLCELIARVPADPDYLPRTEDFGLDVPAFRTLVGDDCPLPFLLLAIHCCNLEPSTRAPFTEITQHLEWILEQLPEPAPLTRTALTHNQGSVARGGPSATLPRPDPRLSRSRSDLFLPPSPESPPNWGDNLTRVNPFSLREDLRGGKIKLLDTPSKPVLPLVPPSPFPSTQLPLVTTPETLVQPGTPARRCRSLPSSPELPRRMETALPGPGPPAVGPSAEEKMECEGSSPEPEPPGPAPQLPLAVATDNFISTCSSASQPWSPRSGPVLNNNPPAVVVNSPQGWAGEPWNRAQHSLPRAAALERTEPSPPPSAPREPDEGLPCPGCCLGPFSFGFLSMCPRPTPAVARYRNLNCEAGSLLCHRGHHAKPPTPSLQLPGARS

[3] = target: T2, Dual specificity testis-specific protein kinase 2 (Homo sapiens, UniProt Q96S53); assay: Inhibition of TESK2
Target sequence in this assay (Q96S53 whole entry, the tested form may be a part): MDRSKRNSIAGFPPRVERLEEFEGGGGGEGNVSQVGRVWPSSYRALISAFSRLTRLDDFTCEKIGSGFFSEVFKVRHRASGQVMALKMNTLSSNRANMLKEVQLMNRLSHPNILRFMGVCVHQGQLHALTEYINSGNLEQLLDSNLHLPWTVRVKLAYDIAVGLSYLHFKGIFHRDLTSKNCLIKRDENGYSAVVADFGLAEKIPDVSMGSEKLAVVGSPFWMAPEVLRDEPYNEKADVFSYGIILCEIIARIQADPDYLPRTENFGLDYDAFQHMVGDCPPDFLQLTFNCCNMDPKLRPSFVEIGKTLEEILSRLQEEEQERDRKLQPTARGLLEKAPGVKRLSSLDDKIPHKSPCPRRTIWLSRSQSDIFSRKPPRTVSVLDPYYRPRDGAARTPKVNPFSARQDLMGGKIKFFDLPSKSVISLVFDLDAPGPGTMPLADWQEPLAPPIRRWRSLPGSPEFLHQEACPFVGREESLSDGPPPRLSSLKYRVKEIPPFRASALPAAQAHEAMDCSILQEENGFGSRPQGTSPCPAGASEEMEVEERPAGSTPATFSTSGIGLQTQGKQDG

LIM domain kinase 2 [4] = target: T3, LIM domain kinase 2 (Homo sapiens, UniProt P53671); assay: Inhibition of LIMK2
Target sequence in this assay (P53671 whole entry, the tested form may be a part): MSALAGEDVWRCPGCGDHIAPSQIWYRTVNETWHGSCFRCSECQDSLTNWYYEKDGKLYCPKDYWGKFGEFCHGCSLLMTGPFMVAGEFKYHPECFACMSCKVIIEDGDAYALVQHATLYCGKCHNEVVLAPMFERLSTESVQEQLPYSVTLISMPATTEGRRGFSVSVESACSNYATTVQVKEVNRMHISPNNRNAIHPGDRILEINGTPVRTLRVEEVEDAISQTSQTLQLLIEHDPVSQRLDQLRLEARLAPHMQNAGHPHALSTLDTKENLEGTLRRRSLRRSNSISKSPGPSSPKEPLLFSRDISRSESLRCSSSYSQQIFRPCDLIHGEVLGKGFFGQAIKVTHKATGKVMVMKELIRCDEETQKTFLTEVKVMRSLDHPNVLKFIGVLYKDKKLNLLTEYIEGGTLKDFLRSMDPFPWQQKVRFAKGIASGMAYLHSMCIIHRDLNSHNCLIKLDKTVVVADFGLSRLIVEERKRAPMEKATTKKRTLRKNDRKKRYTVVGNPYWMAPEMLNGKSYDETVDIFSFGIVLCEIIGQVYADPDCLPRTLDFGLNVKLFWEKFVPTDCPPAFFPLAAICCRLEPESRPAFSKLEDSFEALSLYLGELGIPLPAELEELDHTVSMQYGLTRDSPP

[5] = target: T4, Mitogen-activated protein kinase 14 (Homo sapiens, UniProt Q16539); assay: Inhibition of MAPK p38alpha
T4 sequence (Q16539 whole entry): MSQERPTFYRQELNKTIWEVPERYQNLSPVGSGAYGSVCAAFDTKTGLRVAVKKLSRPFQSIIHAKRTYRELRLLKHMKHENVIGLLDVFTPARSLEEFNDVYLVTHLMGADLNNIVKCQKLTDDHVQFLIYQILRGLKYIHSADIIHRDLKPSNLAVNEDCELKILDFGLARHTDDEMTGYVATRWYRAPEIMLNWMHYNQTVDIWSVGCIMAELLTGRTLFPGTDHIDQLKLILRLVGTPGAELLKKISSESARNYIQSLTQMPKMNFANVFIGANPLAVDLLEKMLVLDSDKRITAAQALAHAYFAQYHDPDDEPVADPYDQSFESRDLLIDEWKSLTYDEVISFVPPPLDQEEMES

[6] = target: T2, Dual specificity testis-specific protein kinase 2; assay: Inhibition of TESK2 at 30 uM
Target sequence in this assay (Q96S53 whole entry, looked up, the tested form may be a part): as the sequence (Q96S53 whole entry, the tested form may be a part) above

HT-1080 [7] = assay: Induction of F-actin depolymerization in human HT1080 cells at 5 uM after 2 days by fluorescein-tagged phalloidin staining; type: functional, cell-based
[8] = target: Mast/stem cell growth factor receptor Kit (Homo sapiens) (UniProt P10721); assay: Binding affinity to human KIT
[9] = target: T5, Serine/threonine-protein kinase 36 (Homo sapiens) (UniProt Q9NRP7); assay: Binding affinity to human fused kinase
T5 sequence (whole entry): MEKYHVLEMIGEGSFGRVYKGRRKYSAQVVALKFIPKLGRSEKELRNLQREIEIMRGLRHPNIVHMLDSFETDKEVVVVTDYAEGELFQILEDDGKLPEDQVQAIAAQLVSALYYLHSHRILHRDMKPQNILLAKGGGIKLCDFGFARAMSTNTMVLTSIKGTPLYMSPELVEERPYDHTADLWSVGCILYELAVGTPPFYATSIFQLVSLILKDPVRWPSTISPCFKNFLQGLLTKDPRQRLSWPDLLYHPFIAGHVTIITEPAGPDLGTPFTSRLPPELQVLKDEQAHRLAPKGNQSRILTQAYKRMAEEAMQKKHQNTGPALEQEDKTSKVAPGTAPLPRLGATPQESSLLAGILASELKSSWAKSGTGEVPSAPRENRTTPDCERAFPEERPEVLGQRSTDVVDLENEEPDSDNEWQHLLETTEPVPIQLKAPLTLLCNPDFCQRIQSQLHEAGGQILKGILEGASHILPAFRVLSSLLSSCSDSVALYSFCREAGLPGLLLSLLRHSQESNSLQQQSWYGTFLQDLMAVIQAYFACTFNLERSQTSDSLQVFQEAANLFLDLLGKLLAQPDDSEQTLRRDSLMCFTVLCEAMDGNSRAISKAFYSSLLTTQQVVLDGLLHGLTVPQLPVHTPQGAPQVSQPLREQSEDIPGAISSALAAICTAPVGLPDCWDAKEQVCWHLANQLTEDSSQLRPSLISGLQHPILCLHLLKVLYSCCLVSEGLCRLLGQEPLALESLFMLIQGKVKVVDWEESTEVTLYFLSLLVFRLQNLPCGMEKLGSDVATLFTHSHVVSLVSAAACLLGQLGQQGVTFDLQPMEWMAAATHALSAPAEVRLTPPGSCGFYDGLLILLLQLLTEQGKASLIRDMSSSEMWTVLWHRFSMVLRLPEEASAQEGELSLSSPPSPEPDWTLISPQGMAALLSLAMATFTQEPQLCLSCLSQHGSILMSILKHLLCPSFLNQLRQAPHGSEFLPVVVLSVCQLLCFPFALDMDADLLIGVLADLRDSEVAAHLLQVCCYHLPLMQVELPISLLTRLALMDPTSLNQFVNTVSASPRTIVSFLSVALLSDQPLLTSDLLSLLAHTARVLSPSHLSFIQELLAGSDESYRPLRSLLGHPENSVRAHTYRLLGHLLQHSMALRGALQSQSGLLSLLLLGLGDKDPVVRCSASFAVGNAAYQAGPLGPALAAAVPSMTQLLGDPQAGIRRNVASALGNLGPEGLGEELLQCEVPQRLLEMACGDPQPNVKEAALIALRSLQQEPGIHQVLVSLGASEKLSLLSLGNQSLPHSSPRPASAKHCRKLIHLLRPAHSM

[10] = target: Angiopoietin-1 receptor (Homo sapiens) (UniProt Q02763); assay: Binding affinity to human TIE2
LIM domain kinase 2 [11] = target: T3, LIM domain kinase 2; assay: Binding affinity to human LIMK2
Target sequence in this assay (P53671 whole entry, looked up, the tested form may be a part): as the sequence (P53671 whole entry, the tested form may be a part) above

[12] = target: T6, TGF-beta receptor type-1 (Homo sapiens) (UniProt P36897); assay: Binding affinity to human TGFBR1
T6 sequence (whole entry): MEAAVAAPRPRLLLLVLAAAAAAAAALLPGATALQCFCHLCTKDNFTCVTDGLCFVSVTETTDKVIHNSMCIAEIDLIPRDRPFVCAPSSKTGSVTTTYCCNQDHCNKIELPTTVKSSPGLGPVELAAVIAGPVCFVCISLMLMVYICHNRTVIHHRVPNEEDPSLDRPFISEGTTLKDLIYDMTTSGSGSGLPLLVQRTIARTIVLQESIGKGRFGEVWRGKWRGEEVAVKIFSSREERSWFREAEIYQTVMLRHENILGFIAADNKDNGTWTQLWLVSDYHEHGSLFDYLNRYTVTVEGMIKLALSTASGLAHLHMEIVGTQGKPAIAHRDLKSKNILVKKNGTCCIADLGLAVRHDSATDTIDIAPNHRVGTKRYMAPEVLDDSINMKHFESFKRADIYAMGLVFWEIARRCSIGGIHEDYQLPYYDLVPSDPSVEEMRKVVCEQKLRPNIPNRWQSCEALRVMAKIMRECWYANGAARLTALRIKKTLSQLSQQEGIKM

[13] = target: T4, Mitogen-activated protein kinase 14; assay: Binding affinity to human p38alpha
LIM domain kinase 1 [14] = target: T1, LIM domain kinase 1; assay: Inhibition of LIMK1-mediated cofilin Ser3 phosphorylation in human HT1080 cells; type: cell-based; conditions: HT-1080
HT-1080 [15] = assay: Cytotoxicity against human HT1080 cells assessed as inhibition of thymidine incorporation; type: cell-based
LIM domain kinase 2 [16] = target: T3, LIM domain kinase 2; assay: Inhibition of LIMK2-mediated cofilin Ser3 phosphorylation in human HT1080 cells; type: cell-based; conditions: HT-1080
Target sequence in this assay (P53671 whole entry, looked up, the tested form may be a part): as the sequence (P53671 whole entry, the tested form may be a part) above

[17] = target: Epithelial discoidin domain-containing receptor 1 (Homo sapiens) (UniProt Q08345); assay: Binding affinity to human DDR1
Chain of Epithelial discoidin domain-containing receptor 1 (Homo sapiens) (Q08345 whole entry, the tested form may be a part): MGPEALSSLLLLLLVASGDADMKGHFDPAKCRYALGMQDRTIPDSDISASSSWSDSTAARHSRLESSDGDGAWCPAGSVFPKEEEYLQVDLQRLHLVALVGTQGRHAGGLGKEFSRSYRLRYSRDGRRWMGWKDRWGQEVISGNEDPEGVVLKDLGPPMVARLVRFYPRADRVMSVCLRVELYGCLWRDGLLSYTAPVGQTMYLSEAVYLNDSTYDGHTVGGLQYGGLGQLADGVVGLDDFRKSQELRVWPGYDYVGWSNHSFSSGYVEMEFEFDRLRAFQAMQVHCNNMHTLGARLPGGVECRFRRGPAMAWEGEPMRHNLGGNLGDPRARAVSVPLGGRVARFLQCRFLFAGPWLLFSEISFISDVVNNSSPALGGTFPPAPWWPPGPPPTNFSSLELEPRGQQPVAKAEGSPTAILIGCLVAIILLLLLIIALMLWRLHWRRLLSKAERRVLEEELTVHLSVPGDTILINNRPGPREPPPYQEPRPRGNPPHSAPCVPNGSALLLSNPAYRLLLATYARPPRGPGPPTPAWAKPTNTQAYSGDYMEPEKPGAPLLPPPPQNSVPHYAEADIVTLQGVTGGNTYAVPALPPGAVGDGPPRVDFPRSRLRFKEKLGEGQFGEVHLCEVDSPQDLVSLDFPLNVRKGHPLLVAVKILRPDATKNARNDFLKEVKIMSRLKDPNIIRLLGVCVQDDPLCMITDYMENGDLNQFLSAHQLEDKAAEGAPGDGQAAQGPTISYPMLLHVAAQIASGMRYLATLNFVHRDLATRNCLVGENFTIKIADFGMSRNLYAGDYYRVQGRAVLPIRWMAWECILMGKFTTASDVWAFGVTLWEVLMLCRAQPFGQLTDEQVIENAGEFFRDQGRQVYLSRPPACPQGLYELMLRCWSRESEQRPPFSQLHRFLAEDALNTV

[18] = tested on: Mast/stem cell growth factor receptor Kit (Homo sapiens), P10721 [V559D]; assay: Binding affinity to human KIT V559D mutant
[19] = target: T7, Activin receptor type-1B (Homo sapiens) (UniProt P36896); assay: Binding affinity to human Alk4
T7 sequence (whole entry): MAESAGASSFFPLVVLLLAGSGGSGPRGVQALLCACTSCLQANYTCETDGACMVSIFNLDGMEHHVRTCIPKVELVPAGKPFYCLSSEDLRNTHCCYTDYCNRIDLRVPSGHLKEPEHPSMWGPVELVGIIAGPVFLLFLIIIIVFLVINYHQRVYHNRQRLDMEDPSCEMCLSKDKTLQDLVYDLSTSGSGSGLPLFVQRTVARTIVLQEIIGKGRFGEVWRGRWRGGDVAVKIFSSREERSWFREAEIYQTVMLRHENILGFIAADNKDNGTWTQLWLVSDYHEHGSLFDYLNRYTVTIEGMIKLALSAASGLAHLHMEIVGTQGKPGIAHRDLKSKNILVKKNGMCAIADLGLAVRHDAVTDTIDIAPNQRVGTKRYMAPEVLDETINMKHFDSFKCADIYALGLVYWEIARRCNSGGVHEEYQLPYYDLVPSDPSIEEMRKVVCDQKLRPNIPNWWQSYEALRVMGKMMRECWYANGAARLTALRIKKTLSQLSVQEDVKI

| Structure (SMILES) | IC50 (LIM domain kinase 1 [1]) | IC50 [2] | IC50 [3] | IC50 (LIM domain kinase 2 [4]) | further results |
| --- | --- | --- | --- | --- | --- |
| CCCNc1ncc(-c2cc(-c3c(Cl)cc(OC4CCCC4)cc3Cl)nc(-c3cnccn3)n2)s1 | 250 nM | > 30000 nM | > 30000 nM | 810 nM | – |
| COC(=O)Nc1ncc(-c2cc(-c3c(C)cc(OC)cc3C)nc(-c3cnccn3)n2)s1 | 284 nM | 11900 nM | 2740 nM | 202 nM | – |
| CNC(=O)Nc1ncc(-c2cc(-c3c(C)cc(OC)cc3C)nc(-c3cnccn3)n2)s1 | 23 nM | 1130 nM | 415 nM | 16 nM | – |
| CCOc1ccc(-c2cc(-c3cnc(NC(C)C)s3)nc(-c3cnccn3)n2)c(Cl)c1 | 368 nM | – | – | – | IC50 [5]: 2000 nM |
| CCCNc1ncc(-c2cc(-c3cc(OCCC)ccc3Cl)nc(-c3cnccn3)n2)s1 | 1040 nM | > 30000 nM | > 30000 nM | 171 nM | – |
| COc1cc(Cl)c(-c2cc(-c3cnc(NC(C)=O)s3)nc(-c3cnccn3)n2)c(Cl)c1 | 30 nM | > 30000 nM | > 30000 nM | 8 nM | – |
| CCCNc1ncc(-c2cc(-c3ccc(OC)cc3Cl)nc(-c3cnccn3)n2)s1 | 1660 nM | > 30000 nM | > 30000 nM | 1230 nM | – |
| COc1cc(C)c(-c2cc(-c3cnc(NC(C)=O)s3)nc(-c3cnccn3)n2)c(C)c1 | 87 nM | 2260 nM | 612 nM | 59 nM | – |
| CCCNc1ncc(-c2cc(-c3c(Cl)cc(OC)cc3Cl)nc(-c3cnccn3)n2)s1 | 38 nM | > 30000 nM | – | 16 nM | inhibition [6]: 72% |
| CCC(CC)Oc1cc(C)c(-c2cc(-c3cnc(NC(=O)NC)s3)nc(-c3cnccn3)n2)c(C)c1 | 66 nM | 2200 nM | 415 nM | 173 nM | – |
| CCOc1ccc(-c2cc(-c3cnc(NC(C)C)s3)nc(-c3ccccc3F)n2)c(Cl)c1 | > 50000 nM | – | – | – | IC50 [5]: 590 nM |
| CCOc1ccc(-c2cc(-c3cnc(NC(C)C)s3)nc(-c3ccccn3)n2)c(Cl)c1 | 485 nM | – | – | – | IC50 [5]: 3940 nM |
| CCC(CC)Oc1cc(C)c(-c2cc(-c3cnc(NC(=O)OC)s3)nc(-c3cnccn3)n2)c(C)c1 | 227 nM | > 30000 nM | > 30000 nM | 382 nM | – |
| CCCNc1ncc(-c2cc(-c3cc(OC)ccc3Cl)nc(-c3cnccn3)n2)s1 | 12500 nM | > 30000 nM | > 30000 nM | 760 nM | – |
| CCCNc1ncc(-c2cc(-c3ccc(OC(CC)CC)cc3Cl)nc(-c3cnccn3)n2)s1 | 359 nM | > 30000 nM | > 30000 nM | 50000 nM | – |
| CCCCCOc1ccc(-c2cc(-c3cnc(NCCC)s3)nc(-c3cnccn3)n2)c(Cl)c1 | 444 nM | > 30000 nM | > 30000 nM | 1540 nM | – |
| CCNC(=O)Nc1ncc(-c2cc(-c3c(C)cc(OC)cc3C)nc(-c3cnccn3)n2)s1 | 58 nM | 455 nM | 252 nM | 38 nM | Activity (HT-1080 [7]): Active; Activity [8]: Active; Activity [9]: Active; Activity [10]: Active; Activity (LIM domain kinase 2 [11]): Active; Activity [12]: Active; Activity [13]: inactive; inhibition (LIM domain kinase 1 [14]): Dose-dependent effect; IC50 (HT-1080 [15]): > 50000 nM; inhibition (LIM domain kinase 2 [16]): Dose-dependent effect; Activity [17]: Active; Activity [18]: Active; Activity [19]: Active |
| CCC(CC)Oc1cc(C)c(-c2cc(-c3cnc(NC(=O)C(C)C)s3)nc(-c3cnccn3)n2)c(C)c1 | 172 nM | > 12500 nM | > 12500 nM | 245 nM | – |
| CNC(=O)Nc1ncc(-c2cc(-c3c(Cl)cc(OC)cc3Cl)nc(-c3cnccn3)n2)s1 | 32 nM | > 30000 nM | > 30000 nM | 12 nM | – |
| CCCNc1ncc(-c2cc(-c3c(Cl)cc(OC(CC)CC)cc3Cl)nc(-c3cnccn3)n2)s1 | 163 nM | > 30000 nM | > 30000 nM | 1530 nM | – |
| CCCNc1ncc(-c2cc(-c3c(Cl)cc(OCCC)cc3Cl)nc(-c3cnccn3)n2)s1 | 115 nM | > 30000 nM | > 30000 nM | 141 nM | – |
| CCCNc1ncc(-c2cc(-c3cc(OCCC4CCCCC4)ccc3Cl)nc(-c3cnccn3)n2)s1 | 145 nM | > 30000 nM | > 30000 nM | 28 nM | – |
| CCCNc1ncc(-c2cc(-c3ccc(OC(CC)CC)cc3C)nc(-c3cnccn3)n2)s1 | 213 nM | > 30000 nM | > 30000 nM | 1220 nM | – |
| CCCNc1ncc(-c2cc(-c3ccc(O)cc3Cl)nc(-c3cnccn3)n2)s1 | 7730 nM | > 30000 nM | > 30000 nM | > 12500 nM | – |
| CCCNc1ncc(-c2cc(-c3ccc(OC4CCCC4)cc3Cl)nc(-c3cnccn3)n2)s1 | 210 nM | > 30000 nM | > 30000 nM | 50000 nM | – |
| CCC(CC)Oc1cc(C)c(-c2cc(-c3cnc(NC(C)=O)s3)nc(-c3cnccn3)n2)c(C)c1 | 64 nM | > 30000 nM | 2010 nM | 311 nM | – |
